In the supplement of paper PMC11451515:

Key:
Settings in all cases: 48 h
SEM cells [1] = assay: cell viability relative to DMSO control; higher = less cytotoxic
In short: (§1)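 Library compounds in DMSO were pin-dosed in an 11-point threefold series (47 μM to 0.79 nM) onto leukemia cells in 1536-well plates (5 μl). Plates held 500 cells/well of NOMO1 or SEM or 1000 cells/well of P12-Ichikawa, each adapted for at least four passages in each medium. Luminescence was read with CellTiter-Glo One after 48 h at 37°C. Viability means the per-plate percentage relative to DMSO wells, using cell-free wells as background.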

P12-Ichikawa [2] = assay: AUC of viability dose-response curve (% viability x log10 dose units); higher = less sensitive
In short: (§2)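 Leukemia cells adapted to each medium were seeded at 500 or 1000 cells/well in 1536-well plates and dosed with library compounds in DMSO at 11 threefold doses from 47 μM to 0.79 nM for 48 h at 37°C. CellTiter-Glo One luminescence was normalised per plate to DMSO and cell-free wells, then fitted with a four-parameter log-logistic model over log10 doses. Area under the curve was taken from this fit by the trapezoidal rule, with curves above full viability scaled and curves failing quality control removed.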

NOMO1 [3] = assay: as above
In short: as §2

SEM cells [4] = assay: as above
In short: as §2

P12-Ichikawa [5] = assay: cell viability relative to DMSO control; higher = less cytotoxic
In short: as §1

NOMO1 [6] = assay: as above
In short: as §1

N#Cc1ccc(C(c2ccc(C#N)cc2)n2cncn2)cc1
SEM cells [1], HPLM + 10% dialyzed FBS
Settings	cell viability [%]
0.000781 µM	121
0.00234 µM	118
0.00702 µM	131
0.0211 µM	130
0.0632 µM	40.1
0.19 µM	129
0.569 µM	140
1.71 µM	131
5.12 µM	54.4
15.4 µM	110
46.1 µM	111

AUC of viability dose-response curve
Settings	HPLM + 10% dialyzed FBS	RPMI 5 mM glucose + 10% FBS	RPMI 5 mM glucose + 10% dialyzed FBS
NOMO1 [3]	442	450	466
P12-Ichikawa [2]	461	460	451

O=C(O)CCCc1c[nH]c2ccccc12
SEM cells [1], HPLM + 10% dialyzed FBS
Settings	cell viability [%]
0.000781 µM	111
0.00234 µM	122
0.00702 µM	130
0.0211 µM	144
0.0632 µM	105
0.19 µM	113
0.569 µM	102
1.71 µM	124
5.12 µM	138
15.4 µM	131
46.1 µM	97.9

AUC of viability dose-response curve
Settings	HPLM + 10% dialyzed FBS	RPMI 5 mM glucose + 10% FBS	RPMI 5 mM glucose + 10% dialyzed FBS
P12-Ichikawa [2]	468	431	452
SEM cells [4]	468	441	431

CN(C)/N=N/c1nc[nH]c1C(N)=O
SEM cells [1], HPLM + 10% dialyzed FBS
Settings	cell viability [%]
0.000781 µM	121
0.00234 µM	122
0.00702 µM	117
0.0211 µM	126
0.0632 µM	125
0.19 µM	120
0.569 µM	128
1.71 µM	119
5.12 µM	123
15.4 µM	106
46.1 µM	105

AUC of viability dose-response curve
Settings	NOMO1 [3]	P12-Ichikawa [2]	SEM cells [4]
HPLM + 10% dialyzed FBS	416	422	467
RPMI 5 mM glucose + 10% FBS	435	410	462
RPMI 5 mM glucose + 10% dialyzed FBS	392	374	307

O=c1oc2c(O)c(O)cc3c(=O)oc4c(O)c(O)cc1c4c23
AUC of viability dose-response curve
Settings	NOMO1 [3]	P12-Ichikawa [2]	SEM cells [4]
HPLM + 10% dialyzed FBS	455	444	471
RPMI 5 mM glucose + 10% FBS	454	452	467
RPMI 5 mM glucose + 10% dialyzed FBS	466	458	451

C[C@]12CC(=O)[C@H]3[C@@H](CC\C4=C\C(=O)\C=C/[C@]34C)[C@@H]1CC[C@]2(O)C(=O)CO
AUC of viability dose-response curve
Settings	NOMO1 [3]	P12-Ichikawa [2]	SEM cells [4]
HPLM + 10% dialyzed FBS	472	458	470
RPMI 5 mM glucose + 10% FBS	461	461	457
RPMI 5 mM glucose + 10% dialyzed FBS	471	438	469

CN(Cc1cc(Br)cc(Br)c1N)C1CCCCC1
SEM cells [1], HPLM + 10% dialyzed FBS
Settings	cell viability [%]
0.000781 µM	99.1
0.00234 µM	122
0.00702 µM	123
0.0211 µM	130
0.0632 µM	104
0.19 µM	133
0.569 µM	104
1.71 µM	133
5.12 µM	121
15.4 µM	130
46.1 µM	108

AUC of viability dose-response curve
Settings	NOMO1 [3]	P12-Ichikawa [2]	SEM cells [4]
HPLM + 10% dialyzed FBS	444	468	472
RPMI 5 mM glucose + 10% FBS	464	471	461
RPMI 5 mM glucose + 10% dialyzed FBS	448	470	441

COc1cc2c(Oc3ccc4[nH]c(C)cc4c3F)ncnc2cc1OCCCN1CCCC1
AUC of viability dose-response curve
Settings	NOMO1 [3]	P12-Ichikawa [2]	SEM cells [4]
HPLM + 10% dialyzed FBS	453	448	382
RPMI 5 mM glucose + 10% FBS	452	449	380
RPMI 5 mM glucose + 10% dialyzed FBS	463	448	356

CN(C)CCN1C(=O)c2cccc3cc(N)cc(c23)C1=O
cell viability [%]
Settings	NOMO1 [6]	P12-Ichikawa [5]	SEM cells [1]
HPLM + 10% dialyzed FBS, 0.000781 µM	116	104	94.4
HPLM + 10% dialyzed FBS, 0.00234 µM	122	113	89.4
HPLM + 10% dialyzed FBS, 0.00702 µM	118	108	110
HPLM + 10% dialyzed FBS, 0.0211 µM	125	109	108
HPLM + 10% dialyzed FBS, 0.0632 µM	118	111	105
HPLM + 10% dialyzed FBS, 0.19 µM	147	114	107
HPLM + 10% dialyzed FBS, 0.569 µM	118	115	108
HPLM + 10% dialyzed FBS, 1.71 µM	123	113	91.1
HPLM + 10% dialyzed FBS, 5.12 µM	93.7	104	51
HPLM + 10% dialyzed FBS, 15.4 µM	72.3	74.8	30.3
HPLM + 10% dialyzed FBS, 46.1 µM	26.7	7.88	3.64
RPMI 5 mM glucose + 10% FBS, 0.000781 µM	93.3	101	70.2
RPMI 5 mM glucose + 10% FBS, 0.00234 µM	108	113	67.3
RPMI 5 mM glucose + 10% FBS, 0.00702 µM	135	107	71.5
RPMI 5 mM glucose + 10% FBS, 0.0211 µM	108	113	72.1
RPMI 5 mM glucose + 10% FBS, 0.0632 µM	121	122	73.8
RPMI 5 mM glucose + 10% FBS, 0.19 µM	121	116	74.1
RPMI 5 mM glucose + 10% FBS, 0.569 µM	132	125	62.6
RPMI 5 mM glucose + 10% FBS, 1.71 µM	102	102	52.4
RPMI 5 mM glucose + 10% FBS, 5.12 µM	105	92.4	32.1
RPMI 5 mM glucose + 10% FBS, 15.4 µM	59.3	54.7	19.3
RPMI 5 mM glucose + 10% FBS, 46.1 µM	13.1	5.84	2.87
RPMI 5 mM glucose + 10% dialyzed FBS, 0.000781 µM	99.2	105	89.5
RPMI 5 mM glucose + 10% dialyzed FBS, 0.00234 µM	110	112	95
RPMI 5 mM glucose + 10% dialyzed FBS, 0.00702 µM	108	108	98.8
RPMI 5 mM glucose + 10% dialyzed FBS, 0.0211 µM	111	102	102
RPMI 5 mM glucose + 10% dialyzed FBS, 0.0632 µM	118	118	112
RPMI 5 mM glucose + 10% dialyzed FBS, 0.19 µM	118	130	99.3
RPMI 5 mM glucose + 10% dialyzed FBS, 0.569 µM	111	120	106
RPMI 5 mM glucose + 10% dialyzed FBS, 1.71 µM	108	101	92
RPMI 5 mM glucose + 10% dialyzed FBS, 5.12 µM	97.3	89.2	60.1
RPMI 5 mM glucose + 10% dialyzed FBS, 15.4 µM	73.6	77.9	34.6
RPMI 5 mM glucose + 10% dialyzed FBS, 46.1 µM	23.9	11.8	3.19

AUC of viability dose-response curve
Settings	HPLM + 10% dialyzed FBS	RPMI 5 mM glucose + 10% FBS	RPMI 5 mM glucose + 10% dialyzed FBS
NOMO1 [3]	424	427	435
P12-Ichikawa [2]	437	418	431
